In test [1] the test system is sugarcane stem sections. To be noted: for Avg. Germ / Avg. Height: evaluated seven days after planting. Here is the method: Sugarcane stem sections having a diameter of approximately […] and a length of approximately 50 mm were generated (e.g., cut) from sugarcane stalks. One set of cut sugarcane stem section were dipped into the coating compositions for a dwell time of about 60 seconds, and subsequently allowed to dry at room temperature (i.e., about 30° C. Another set of control sugarcane stem sections were not coated and remained at room temperature (i.e., about 30° C.) (i.e., identified below as “No AgNO3”). The coated and control uncoated sugarcane stem sections were then planted as is (i.e., these stem sections are identified below as “Day Zero”) or stored for a period of time up to three weeks in an air tight jar at room temperature (i.e., about 30° C.). Following storage, the coated and control uncoated sugarcane stem sections were then germinated in biochamber boxes. All coated and control uncoated sugarcane stem sections were germinated in a growth chamber and evaluated seven days after planting.

In test [2] the test system is sugarcane stem sections of CP88-1762. An excerpt:
Sugarcane stem sections of CP88-1762 having a diameter of approximately 25-30 mm and a length or approximately 50 mm were coated with a standard treatment slurry (designated control treatment) or treated with the standard treatment slurry which also contained AgNO3 at a concentration of 600 μMol of AgNO3 (designated as AgNO3 treatment). The AgNO3 treated and control sugarcane stem sections were then planted as is or stored for a period of time up to three weeks in storage containers as shown in FIG. 1 (i.e., storage containers that allow gas transfer between an interior and an exterior of the storage container) at storage temperatures ranging from 10° C. to 22° C. Following storage, the AgNO3 treated and control sugarcane stem sections were planted in trays of potting soil and placed in a greenhouse. The trays were watered daily to maintain moisture and the greenhouse maintained at 26/20 C maximum/minimum temperatures with 15 hours light. Growth and germination of all AgNO3 treated and control sugarcane stem sections were evaluated at 7, 14, and 21 days after removal from storage containers.

Test [3] has as its system sugarcane stem sections of CP88-762. The note with it: 14 days after planting. An excerpt:
Sugarcane stem sections of CP88-762 having a diameter of approximately 25-30 mm and a length of approximately 50 mm were cut and treated with a standard treatment slurry or a standard treatment slurry containing AgNO3 at a final concentration of 600 μMol of AgNO3 as described in Example 3. The AgNO3 treated and control (without AgNO3) sugarcane stem sections were then planted as is or stored for an extended period of time up to 42 days in storage containers as shown at FIG. 1 (i.e., storage containers that allow gas transfer between an interior and so exterior of the storage container) at a storage temperature of 10° C. Following storage, the AgNO3 treated and control sugarcane stem sections were planted in trays of potting soil and placed in a greenhouse as described in example 3. All sugarcane stem sections were evaluated for germination and shoot growth at 14 days after planting.

In test [4] the test system is sugarcane stem sections. The note with it: 300, 600 and 1200 μMol AgNO3; storage up to three weeks in air-tight jars at 16° C.; biochamber boxes or potted soil trays; FIGS. 2-7.
Text: Sugarcane stem sections (i.e., two varieties: CP 88-1762 and CP00-1101) having a diameter of approximately 25-30 mm and a length of approximately 50 mm were cut and coated (or left uncoated) as described in Example 1 using coating compositions having AgNO3 concentrations of 0, 300, 600 and 1200 μMol of AgNO3. The coated and control uncoated sugarcane stem sections were then planted as is or stored for a period of time up to three weeks in one gallon air-tight jars (i.e., about 20 coated sugarcane stem sections per jar) at 16° C. Following storage, the coated and control uncoated sugarcane stem sections were then germinated in either biochamber boxes or potted soil trays (i.e., 5 jars each) or both. All coated and control uncoated sugarcane stem sections were planted and evaluated as follows: germination rates were taken in the biochamber boxes at 3, 5, and 7 days after removal from the jars: germination rates were taken in the potted trays at 10, 12, and 14 days after removal from the jars.
The mark [5] stands for this setting: 200 μMol AgNO3, 2 weeks storage in air tight jar at about 30° C.
The mark [6] stands for this setting: 200 μMol AgNO3, 3 weeks storage in air tight jar at about 30° C.
The mark [7] stands for this setting: 400 μMol AgNO3, 2 weeks storage in air tight jar at about 30° C.
[8] abbreviates: 400 μMol AgNO3, 3 weeks storage in air tight jar at about 30° C.
Setting [9] is: 600 μMol AgNO3, 2 weeks storage in air tight jar at about 30° C.
The mark [10] stands for this setting: 600 μMol AgNO3, 3 weeks storage in air tight jar at about 30° C.
The mark [11] stands for this setting: after a weeks of storage in an air-tight jar (3 weeks rows of Table 1).
The mark [12] stands for this setting: 600 μMol AgNO3 in standard treatment slurry, storage up to three weeks at 10° C. to 22° C. in gas-permeable containers, FIGS. 8-9.

Molecules are shown by their SMILES. Like-named read-outs stand apart in the source and are kept apart here.

Take `O=[N+]([O-])[O-].[Ag+]` [AgNO3, silver nitrate]: the “germination compared to the control "no AgNO3" sample” value with sugarcane stem sections [1] (200 μmol concentration, 2 weeks of storage in an air-tight jar) was “increased germination”. Moreover, the “Avg. Germ” value came to 83.33% with sugarcane stem sections [1] (setting [5]); 52.50% with sugarcane stem sections [1] (setting [6]); 52.38% with sugarcane stem sections [1] (setting [7]); 45.00% in the test with sugarcane stem sections [1] (setting [8]); 61.90% in the test with sugarcane stem sections [1] (setting [9]); 87.50% in the test with sugarcane stem sections [1] (setting [10]). The “Avg. Height” value with sugarcane stem sections [1] (setting [5]) is listed as 51.38 mm; in the test with sugarcane stem sections [1] (setting [6]) it was 42.91 mm; with sugarcane stem sections [1] (setting [7]), 39.66 mm; in the test on sugarcane stem sections [1] (setting [8]), 30.53 mm; in the test with sugarcane stem sections [1] (setting [9]), 40.79 mm; in the test with sugarcane stem sections [1] (setting [10]) it was 55.19 mm. In the test with sugarcane stem sections [1] (setting [11]), the “germination over the control "non-AgNO3" samples” value is recorded as “improved germination”. Moreover, in the test with sugarcane stem sections [1] (setting [11]), the “plant height over the control "non-AgNO3" samples” value is recorded as “improved”. The stem section germination result in test [2] (600 μMol AgNO3, 7 through 21 days storage) is recorded as “significant enhancement”. The shoot lengths entry in test [2] (600 μMol AgNO3, all storage periods including day 0 planting) was “significant enhancement”. Further, the “vitality of sugarcane plants compared to plants from control stem sections” value in test [2] (600 μMol AgNO3, stored for 14 days at 22° C., 28 days after planting, FIG. 10) is listed as “much more vitality”. The “germination rates compared to control sugarcane stem sections” value in test [2] (setting [12]) is “improved germination rates”; in test [3] (600 μMol AgNO3 in standard treatment slurry, throughout the 42 days of storage at 10° C., FIG. 11) it was “improved germination rates”. Besides, the “plant vitality (as measured by plant height) compared to control sugarcane stem sections” value is “improved” in test [2] (setting [12]) and “improved” in test [3] (600 μMol AgNO3 in standard treatment slurry, throughout the 42 days of storage at 10° C., FIG. 12). Also, the germination rate in test [3] (600 μMol AgNO3, after 6 weeks storage at 10° C., FIG. 11) stood at 68%. In addition, the “germination rates compared to the standard slurry applied sugarcane stem sections” value in the test on sugarcane stem sections [4] is recorded as “improved germination rates”.

These data come from patent publication US20170164607A1, “METHODS OF EXTENDING THE SHELF LIFE OF SUGARCANE STEM SECTIONS AND COATED SUGARCANE STEM SECTIONS” (Syngenta Participations AG, priority 2014, published 2017).
